Consider 34 compounds from the SangsterLogP compilation.

The nature of this series: method code SF-AS, from Mayer, M.; Testa, B.; Van, H.; Bornand-Crausaz, A. (1982). Non-additivity amd intramolecular effects in the partition coefficient of omega-functionalized alkylpyridines. Eur J Med Chem, 17(5)453-459.

As usually defined, the logP is a log measure of how a compound divides between an organic and an aqueous phase. Read a low logP as lower lipophilicity. Turning to `NCCCCc1cccnc1`, the logP was determined as 0.88.

The compound `NCc1ccncc1` registered a logP of -0.38.

`NCCCCCc1cccnc1` registered a logP of 1.41.

For `OCc1ccccn1`, the lipophilicity (logP) amounted to 0.06.

Take `OCc1cccnc1`: the logP is -0.02.

`NCCCc1cccnc1` had a lipophilicity (logP) of 0.44.

In turn, `NCCCCc1ccccn1` had a logP of 0.86.

Compound `NCCCc1ccccn1` yielded a logP of 0.49.

In turn, `NC(=O)CCCCc1cccnc1` came in with a lipophilicity (logP) of 0.4.

`NC(=O)CCc1ccncc1`: the lipophilicity (logP) was -0.25.

For the compound `OCCCCCc1ccncc1`, the logP worked out at 1.33.

For `NC(=O)CCc1ccccn1`, the logP was -0.27.

In turn, `NCCc1ccncc1` showed a logP of -0.01.

`OCCCc1ccncc1` returned a logP of 0.58.

Turning to `NCCCc1ccncc1`, the lipophilicity (logP) was found to be 0.4.

Take `OCCCCc1cccnc1`: the log partition coefficient (logP) turned out to be 0.92.

In turn, `OCCCCCc1cccnc1` yielded a logP of 1.41.

The compound `OCCCc1ccccn1` gave a lipophilicity (logP) of 0.58.

Compound `OCCCCc1ccncc1` returned a logP of 0.9.

`NCCCCc1ccncc1` came in with a logP of 0.86.

`OCCCCc1ccccn1` displayed a lipophilicity (logP) of 0.86.

For the compound `OCCCCCc1ccccn1`, the lipophilicity (logP) was 1.28.

`NC(=O)CCCCc1ccncc1` registered a logP of 0.42.

`NCc1ccccn1` registered a lipophilicity (logP) of -0.21.

In the case of `OCCc1ccccn1`, the log partition coefficient (logP) stood at 0.12.

In the case of `NC(=O)CCc1cccnc1`, the lipophilicity (logP) is -0.26.

Compound `NCCCCCc1ccccn1` registered a logP of 1.32.

Regarding `OCCCc1cccnc1`, the lipophilicity (logP) came out at 0.6.

The compound `NCCCCCc1ccncc1` came in with a lipophilicity (logP) of 1.4.

On to `NCCCc1ccccc1`, for which the logP is 1.83.

With `OCCc1ccncc1`, the logP was 0.1.

Compound `NCCc1ccccn1` gave a log partition coefficient (logP) of 0.08.

Compound `OCCc1cccnc1` yielded a logP of 0.12.

In the case of `NCCc1cccnc1`, the lipophilicity (logP) is 0.
